In article PMC11455950, “Effects of SZV-2649, a new multiple ion channel inhibitor mexiletine analogue” (Scientific Reports, 2024):

What was measured:
[1] = system: IKACh in dog atrial trabecular muscle preparations; assay: Action potential duration in carbachol-pretreated dog atrial trabecular muscle; conditions: 1 µM, 10 min
Procedure: The possible effect of SZV-2649 on IKACh was investigated in dog atrial trabecular muscle preparations. Carbachol (1 µM) was added to the tissue bath for 10 min to activate IKACh. […] Application of 10 µM SZV-2649 prolonged APD substantially to a greater degree (100%) than could be expected by its effect on repolarization in the absence of carbachol (10%) as shown in Table 1; Fig. 5D.
Action potentials were recorded in cardiac ventricular trabeculae and papillary muscle preparations obtained from the right ventricles of Beagle dogs (10–15 kg) of either sex using the conventional microelectrode technique. Dogs were sacrificed by iv. sedation with xylazine (1 mg/kg), followed by i.v. administration of 50 mg/kg pentobarbital. After the cornea reflex disapeared the chest was opened, and the heart was rapidly removed. […]
Isolated papillary muscle or atrial trabecula and Purkinje fiber preparations were obtained and prepared from the right ventricle and were individually mounted in a tissue chamber with the volume of 50 ml. […] Transmembrane potentials were recorded using conventional glass microelectrodes, filled with 3 M KCl and having tip resistances of 5–20 MΩ, connected to the input of a high impedance electrometer (Experimetria, type 309, Budapest, Hungary) which was coupled to a dual beam oscilloscope. […]

anesthetized rats = assay: Coronary artery occlusion/reperfusion-induced ventricular arrhythmias in anesthetized rats; format: in vivo, rat; conditions: for Effect on incidence of ventricular arrhythmias: 6 min coronary artery occlusion / 5 min reperfusion, i.v. 2 min before ischemia; for Incidence of ventricular fibrillation (VF): during reperfusion, over 50% in control animals; for Effect on heart rate: i.v. administration, anesthetized rats
From the text: The effects of SZV-2649 were further studied in the acute ischemia-induced ventricular arrhythmia model in anasthetized rats. Mexiletine and dofetilide were used as reference compounds for comparison.
The surgical procedure was based on a modified method described in detail in Gömöri et al. (2020)[62]. Pentobarbital-anesthetized male Wistar-Hannover rats were mechanically ventilated and subjected to thoracic surgery to perform a 6-min coronary artery occlusion and 5-min of reperfusion for the development of ischemia-induced ventricular arrhythmias (see Fig. 6A). The right jugular vein was cannulated for the administration of SZV-2649, vehicle, mexiletine or dofetilide, and the right carotid artery was used to measure blood pressure. The three-lead electrocardiogram and body temperature were continuously registered. Ten to twelve rats per group were administered vehicle (dimethyl sulfoxide, 200 µL/kg) or the studied drugs (see above), 2 min before the onset of ischemia as a slow i.v. bolus injection through the right jugular vein. At the end of 5-min reperfusion, hearts were isolated, mounted onto a Langendorff perfusion system, and after re-occluding the coronary artery, were perfused with 5-mL of 70% ethanol via the ascending aorta to delineate the ischemic risk zone. Then the left ventricles were cut along the demarcation lines of denatured area, and the sections were weighed to determine the area of risk to normalize the extent of the ischaemic insult. We evaluated the occurrence of ventricular arrhythmias based on the recommendations of the modified Lambeth Conventions published previously by Curtis et al. (2013)[63].

anesthetized dogs = assay: Atrial fibrillation induced by carbachol infusion and burst stimulation in anesthetized dogs; format: in vivo, dog; parameters: key to AF converted to SR? / AF reinduced?: N, response not observed; Y, response observed; conditions: i.v. 0.3 mg/kg
Procedure: The effect of SZV-2649 was further investigated in carbachol-infused and programmed electrical stimulation-induced (i.e. 800/min atrial burst stimulation) acute atrial fibillation model in anesthetized dogs.
In the atrial fibrillation experiments, at least 5–6 dogs for control and test groups, (respectively) were used. Following 0.5 µg/kg sufentanyl premedication and […] i.v. pentobarbital anaesthesia induction, left thoracotomy was performed on all animals. Dogs were endotracheally intubated and mechanically ventilated (UGO Basile respirator; Biological Research Apparatus, Italy) Physiological parameters (non-invasive blood pressure, SpO2, ECG) were continuously monitored during surgery and experiments (InnoCare-VET Patient Care Monitor; Budapest, Hungary). The ECGs were recorded using precordial leads and were digitized and stored on a computer for off-line analysis using National Instruments data acquisition hardware (National Instruments, Austin, Texas, USA) and SPEL Advanced Haemosys software (version 3.2, MDE Heidelberg GmbH, Germany). Under pentobarbital anaesthesia, two pacemaker electrodes (Biotronik Solia S 60; Biotronik Ltd., Hungary) were positioned epicardially into the left atrial appendage and apex of the left ventricle, respectively, and electrodes were connected to pacemakers (Effecta D; Biotronik Hungary Ltd., Hungary). Pacemakers were programmed in VVI mode using Biotronik IC: 4808 A-Renamic programmer to prevent the potentially bradycardic effect of carbachol leading to hemodynamic instability. Atrial and ventricular thresholds were measured before AF induction in all animals. Ventricular and atrial pacing were set to three times the measured threshold. AF inducibility were tested in both groups using a control set (25 times) of 10-second-long rapid atrial bursts (800 beats/min, at threefold threshold). Following 25 atrial burst stimuli, 2 × 2 µg/kg loading dose of intravenous carbachol was administered followed by an 8 µg/kg/h maintenance dose. Atrial fibrillation was induced using 10-second-long atrial burst stimuli in the presence of carbachol in both groups of dogs. […] In these experiments, we investigated whether AF was converted to SR by the test drug(s). All intravenous infusions were performed using a programmable infusion pump (Terufusion TE-3; Terumo Europe, Leuven, Belgium).

Compound	Effect on incidence of ventricular arrhythmias (anesthetized rats)	Incidence of ventricular fibrillation (VF) (anesthetized rats) [%]	Effect on heart rate (anesthetized rats)	other results
C[N+](C)(C)CCOC(N)=O [carbachol, reference compound]				Effect on atrial repolarization [1]: substantially shortened
CN(CCOc1ccc(NS(C)(=O)=O)cc1)CCc1ccc(NS(C)(=O)=O)cc1 [dofetilide]	increased	75	significantly decreased	
Cc1cccc(C)c1OCC(C)N (centres unmarked) [mexiletine]	showed some antiarrhythmic effects	18	significantly decreased	
CCCNCC(O)COc1ccccc1C(=O)CCc1ccccc1 (centres unmarked) [propafenone, reference compound]				AF reinduced (number of the 25 burst stimuli) (anesthetized dogs; individual dogs, carbachol + burst): 1/25; AF reinduced? (anesthetized dogs; individual dogs, carbachol + burst, 0.3 mg/kg): N (-) and Y; Atrial fibrillation reinduced, share of burst stimuli (anesthetized dogs; whole group): 1.6%; Times atrial fibrillation was reinduced by the 25 burst stimuli delivered in each animal (anesthetized dogs; whole group): 2 times
